Source: US20100099113A1, “MINIMIZED SMALL PEPTIDES WITH HIGH AFFINITY FOR FACTOR VIII AND FACTOR VIII-LIKE PROTEINS” (Technische Universitat Muenchen, priority 2006, published 2010)
Where no end group is shown, it is not given here. [ ]: non-standard residue; d: D form. Bpa = N[C@@H](Cc1ccc(C(=O)c2ccccc2)cc1)C(=O)O; 2Nal = N[C@@H](Cc1ccc2ccccc2c1)C(=O)O; Abu = CC[C@H](N)C(=O)O

Tests used:
[1] = target: T1, Plasma-derived (pd-) human Factor VIII (Homo sapiens, UniProt P00451); assay: Binding of 125I-labeled pd-FVIII to peptide-coated Toyopearl resin (micro-beads assay); conditions: peptide immobilized on Toyopearl AF-Epoxy-650M resin; 125I-pd-FVIII, 2 hours room temperature; percent of maximal achievable binding (anti-FVIII Mab 8860-coated resin); mean ± SD of four determinations
T1 construct: from tissue; host or cells: human blood plasma (FVIII concentrate)
T1 sequence (P00451 20-1667 limits assumed, one chain of several): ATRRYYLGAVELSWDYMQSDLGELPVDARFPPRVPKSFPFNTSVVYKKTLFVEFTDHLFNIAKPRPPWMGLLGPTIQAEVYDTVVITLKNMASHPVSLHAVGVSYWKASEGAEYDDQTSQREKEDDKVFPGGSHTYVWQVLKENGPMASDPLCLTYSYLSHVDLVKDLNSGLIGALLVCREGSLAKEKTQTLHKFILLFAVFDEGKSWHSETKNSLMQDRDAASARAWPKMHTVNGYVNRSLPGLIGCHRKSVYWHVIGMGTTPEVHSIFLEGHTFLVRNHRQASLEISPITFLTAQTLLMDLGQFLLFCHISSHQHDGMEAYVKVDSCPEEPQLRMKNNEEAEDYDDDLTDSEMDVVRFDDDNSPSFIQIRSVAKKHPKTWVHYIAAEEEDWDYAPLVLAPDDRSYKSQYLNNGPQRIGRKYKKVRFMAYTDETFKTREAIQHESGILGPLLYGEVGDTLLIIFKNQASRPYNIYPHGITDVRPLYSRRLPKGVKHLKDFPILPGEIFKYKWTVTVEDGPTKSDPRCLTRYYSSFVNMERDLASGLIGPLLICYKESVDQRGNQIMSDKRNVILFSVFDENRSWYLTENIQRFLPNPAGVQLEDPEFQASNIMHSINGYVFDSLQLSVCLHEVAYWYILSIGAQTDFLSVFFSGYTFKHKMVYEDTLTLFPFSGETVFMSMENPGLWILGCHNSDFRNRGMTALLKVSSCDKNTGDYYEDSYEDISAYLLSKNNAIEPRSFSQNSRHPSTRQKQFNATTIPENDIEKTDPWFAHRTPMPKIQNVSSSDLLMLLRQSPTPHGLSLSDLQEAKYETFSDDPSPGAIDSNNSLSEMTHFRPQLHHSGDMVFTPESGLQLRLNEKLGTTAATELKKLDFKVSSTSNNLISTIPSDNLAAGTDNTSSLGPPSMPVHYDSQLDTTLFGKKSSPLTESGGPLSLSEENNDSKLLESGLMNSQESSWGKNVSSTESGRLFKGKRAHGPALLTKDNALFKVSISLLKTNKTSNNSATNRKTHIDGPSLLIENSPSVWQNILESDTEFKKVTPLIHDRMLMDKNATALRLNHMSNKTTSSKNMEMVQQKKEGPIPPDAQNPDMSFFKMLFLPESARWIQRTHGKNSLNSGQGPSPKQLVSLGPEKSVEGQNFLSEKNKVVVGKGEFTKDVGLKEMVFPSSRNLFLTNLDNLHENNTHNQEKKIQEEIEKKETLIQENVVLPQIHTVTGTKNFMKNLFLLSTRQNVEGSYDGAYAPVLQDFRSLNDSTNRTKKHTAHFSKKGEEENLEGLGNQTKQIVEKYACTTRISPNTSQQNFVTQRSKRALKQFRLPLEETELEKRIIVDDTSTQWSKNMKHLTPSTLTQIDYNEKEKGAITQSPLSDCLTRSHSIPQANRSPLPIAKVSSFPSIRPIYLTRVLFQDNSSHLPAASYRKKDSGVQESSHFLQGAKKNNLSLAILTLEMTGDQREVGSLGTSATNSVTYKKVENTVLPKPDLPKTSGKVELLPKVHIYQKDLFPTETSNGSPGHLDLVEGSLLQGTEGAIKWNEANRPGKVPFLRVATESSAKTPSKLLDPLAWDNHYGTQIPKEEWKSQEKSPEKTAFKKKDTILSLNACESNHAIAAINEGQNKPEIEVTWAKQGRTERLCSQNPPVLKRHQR
Experimental: Peptides S1 to S84 were immobilized on the Toyopearl AF-Epoxy-650M resin (Tosoh Biosep) as described by Jungbauer et al. For immobilization, 2.5 mg of each peptide was dissolved in 0.25 mL of the immobilization buffer (0.2 M sodium bicarbonate, pH 10.3), and 0.036 g of the dry resin powder (corresponding to 0.125 mL of swollen resin) was added, followed by incubation of the mixture with gentle rotation for 48 hours. Upon incubation for 48 hours the resin was washed once with immobilization buffer, once with 1 M NaCl and then 3 times with binding buffer, and binding of ^125I-labeled pd-FVIII to the peptide-coated and control resin was tested. The coupling density of each peptide in each of the reported experiments was as mentioned in Table 1. The control 0.25 mL portion of the resin was similarly treated in parallel experiment in the absence of peptide and was subsequently used as a control (designated as Background) in ^125I-pd-FVIII binding experiments. ^125I-pd-FVIII Bound/Background ratios were calculated as the amount of ^125I-pd-FVIII, bound to an immobilized peptide, divided by that bound to uncoated control resin, prepared as described above. This ratio represents a Signal/Noise ratio for the micro-beads assay, since ^125I-pd-FVIII bound to peptide represents the signal value and ^125I-pd-FVIII bound to peptide-uncoated resin represents the background (noise) value.
Plasma-derived (pd-) human Factor VIII (FVIII) was purified from concentrate by immunoaffinity chromatography on an anti-FVIII monoclonal antibody column followed by subsequent concentration of pd-FVIII by ion-exchange chromatography using Resource Q HR5/5 column.
The resin with immobilized peptides was washed in the binding buffer (0.01 M Hepes, 0.1 M NaCl, 5 mM CaCl2, 0.01% Tween-80). Subsequently, the resin was diluted in the binding buffer as 1:7 slurry and aliquoted into Eppendorf tubes (40 μL per tube). ^125I-pd-FVIII (100000 cpm in 10 μL) was added to the tubes and the volume of the mixture was adjusted to 100 μL by adding 50 μL of the binding buffer containing 4% BSA to give a 2% final concentration of BSA. After 2 hours of incubation at room temperature on a rotator, the samples were washed 4 times in the binding. After each wash the tubes were centrifuged at 5000 rpm for 1 min in an Eppendorf microcentrifuge, supernatant was discarded, and the resin was re-suspended in the washing buffer, followed by centrifugation under the same conditions. After four washes the tubes with pellet without supernatant were counted for radioactivity. The resin without peptide was processed similarly to account for non-specific pd-FVIII binding to tubes and resin itself, and the radioactivity in this control tube was considered as a background value. Since ^125I-pd-FVIII contains the some fraction damaged during radiolabeling, binding was calculated as a percent of maximal achievable binding, determined in separate experiment with anti-FVIII Mab 8860-coated resin.
All the measurements were performed in duplicates. Each experiment was performed using two independently prepared immobilized peptide samples. The data presented in each table are the mean values of the four determinations: duplicate determination in the two assays performed with beads on which peptides were independently immobilized on the different days. The value of standard deviation of the above quadruplicate determinations (duplicate determinations in two independent experiments) were typically less than 10% of the measured values of ^125I-pd-FVIII binding to peptides.

ReFacto = target: T2, ReFacto (Homo sapiens, UniProt P00451, DEL763-1656); assay: Binding of ReFacto to peptide-coated resin; conditions: peptide immobilized on resin; Table 1
T2 construct: purchased Wyeth-Ayerst Pharmacia and Upjohn; host or cells: CHO cells
T2 sequence (P00451 with tags, fused parts or gaps DEL763-1656 limits assumed): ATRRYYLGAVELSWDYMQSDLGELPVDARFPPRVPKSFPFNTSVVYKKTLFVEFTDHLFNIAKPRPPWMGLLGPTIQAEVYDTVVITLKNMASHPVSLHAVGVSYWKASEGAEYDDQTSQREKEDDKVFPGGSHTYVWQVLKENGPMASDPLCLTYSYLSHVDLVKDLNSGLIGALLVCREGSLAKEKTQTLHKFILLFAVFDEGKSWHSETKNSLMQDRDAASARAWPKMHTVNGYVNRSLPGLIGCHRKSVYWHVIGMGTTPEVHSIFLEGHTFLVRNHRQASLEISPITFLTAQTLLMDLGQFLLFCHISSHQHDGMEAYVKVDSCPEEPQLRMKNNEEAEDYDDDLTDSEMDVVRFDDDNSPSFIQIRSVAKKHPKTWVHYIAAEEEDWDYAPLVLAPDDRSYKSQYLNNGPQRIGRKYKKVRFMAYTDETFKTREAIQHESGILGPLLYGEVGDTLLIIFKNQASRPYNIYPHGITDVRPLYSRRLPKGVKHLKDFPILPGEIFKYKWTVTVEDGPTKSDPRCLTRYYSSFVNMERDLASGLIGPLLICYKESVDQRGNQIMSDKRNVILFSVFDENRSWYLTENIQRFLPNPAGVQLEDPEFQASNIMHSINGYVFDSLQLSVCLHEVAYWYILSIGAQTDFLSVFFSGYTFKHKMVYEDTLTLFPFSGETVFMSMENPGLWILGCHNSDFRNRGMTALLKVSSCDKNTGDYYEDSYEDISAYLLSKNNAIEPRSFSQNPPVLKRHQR
T2 sequence (P00451 1668-2351 limits assumed): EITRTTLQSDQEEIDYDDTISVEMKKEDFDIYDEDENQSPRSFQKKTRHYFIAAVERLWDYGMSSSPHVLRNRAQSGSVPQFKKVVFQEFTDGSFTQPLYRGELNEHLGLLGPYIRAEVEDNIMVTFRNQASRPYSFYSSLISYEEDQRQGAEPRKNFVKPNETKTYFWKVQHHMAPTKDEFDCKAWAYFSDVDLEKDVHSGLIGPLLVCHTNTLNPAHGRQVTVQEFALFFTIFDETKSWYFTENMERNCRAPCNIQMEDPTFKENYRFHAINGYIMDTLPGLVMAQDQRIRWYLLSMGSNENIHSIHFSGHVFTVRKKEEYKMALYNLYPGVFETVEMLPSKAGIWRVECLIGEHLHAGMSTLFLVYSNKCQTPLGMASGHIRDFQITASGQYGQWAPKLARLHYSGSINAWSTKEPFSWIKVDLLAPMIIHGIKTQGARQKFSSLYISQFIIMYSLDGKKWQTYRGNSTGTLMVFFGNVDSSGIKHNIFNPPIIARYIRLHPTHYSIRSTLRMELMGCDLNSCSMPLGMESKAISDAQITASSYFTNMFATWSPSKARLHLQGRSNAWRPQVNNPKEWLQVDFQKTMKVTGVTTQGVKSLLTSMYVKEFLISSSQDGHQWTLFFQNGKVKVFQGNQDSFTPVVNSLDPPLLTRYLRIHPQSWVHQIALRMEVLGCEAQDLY

| % Binding pdFVIII [1] [%] | % Binding ReFacto (ReFacto) [%] | Substance |
| --- | --- | --- |
| 47.5 ± 2.9 | 38.9 ± 2.8 | Y-H-T-W-E-Y-C (YHTWEYC) [S47] |
| 38.1 ± 2.7 | 42.5 ± 2.8 | S-W-E-Phg-C [S53] |
| 35.3 ± 2.4 | 36.4 ± 2.4 | Abu-W-E-Y-C [S50] |
| 52.0 ± 3.1 | 40.2 ± 2.9 | Y-H-S-W-D-Y-C (YHSWDYC) [S48] |
| 51.5 ± 2.9 | 36.2 ± 2.1 | Y-H-S-W-E-Bip(4,4′)-C [S55] |
| 47.5 ± 3.3 | 51.2 ± 3.4 | Y-H-T-W-D-Y-C (YHTWDYC) [S52] |

The remaining lines, values behind:

| Substance | % Binding pdFVIII [1] [%] | % Binding ReFacto (ReFacto) [%] |
| --- | --- | --- |
| YHS[Bpa]E[Bpa]C [S51] | 63.4 ± 3.8 | 49.3 ± 3.5 |
| YHS[2Nal]EYC [S42] | 60.3 ± 2.2 | 47.8 ± 2.1 |
| YHSWE[2Nal]C [S56] | 51.5 ± 3.4 | 51.5 ± 3.4 |
| T-W-E-Y-C [S46] | 37.0 ± 2.1 | 25.1 ± 1.9 |
| YF[Abu]WEYC [S36] | 62.0 ± 4.2 | 53.8 ± 5.0 |
| E-S-W-E-Y-C (ESWEYC) [S44] | 38.0 ± 2.4 | 35.1 ± 2.4 |
| Ac-E-S-W-E-Y-C (Ac-ESWEYC) [S45] | 36.4 ± 2.6 | 38.4 ± 2.6 |
| YF[Abu]WEYC [S49] | 64.5 ± 4.0 | 54.4 ± 3.8 |
| YH[Abu]WEYC [S54] | 32.3 ± 2.6 | 44.4 ± 2.8 |
| YHSWE[Bpa]C [S38] | 52.3 ± 4.1 | 59.2 ± 4.8 |
| C-S-W-E-Y [S20] | 48.6 ± 3.3 | 45.3 ± 3.1 |
| S-W-D-Y-C [S43] | 48.2 ± 2.8 | 35.6 ± 2.6 |
